Laboratory results reported in patent US9102669B2, “Substituted piperidinyl-pyridazinyl derivatives useful as SCD 1 inhibitors” (Janssen Pharmaceutica NV, priority 2011, dated 2015).
Values joined by “and” are separate entries in the source; they are usually repeats but may differ in a detail not shown here. Equal entries are not always repeated.

Key:
SCD1 [1] = biological target: SCD1 (Homo sapiens (Human), UniProt O00767); assay: SCD1 13C-palmitic acid assay in A431 cells; format: cell-based; settings: read-out: A431 cells 13C-PA IC50
Chain of SCD1 (Homo sapiens (Human), UniProt O00767) (O00767 whole entry): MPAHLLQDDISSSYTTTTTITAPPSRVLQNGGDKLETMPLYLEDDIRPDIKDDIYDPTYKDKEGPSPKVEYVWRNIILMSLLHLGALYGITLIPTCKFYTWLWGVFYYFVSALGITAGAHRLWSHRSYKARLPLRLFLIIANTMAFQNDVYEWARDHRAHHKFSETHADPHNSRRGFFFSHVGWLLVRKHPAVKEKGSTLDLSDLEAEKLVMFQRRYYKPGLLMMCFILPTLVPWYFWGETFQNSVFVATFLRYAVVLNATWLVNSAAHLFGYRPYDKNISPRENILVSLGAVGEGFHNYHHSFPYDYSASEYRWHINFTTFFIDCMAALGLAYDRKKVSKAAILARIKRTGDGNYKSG
Method: Human epithelial carcinoma A431 cells were seeded at 100,000 cells/well in complete growth medium (DMEM, Cellgro#10-013-CM, 4.5 g/L glucose, 10% FBS) in the presence of 0.05 mg/mL human insulin (Hannas Pharmaceutical Supply Co Inc, Humanlin 100 U/ml, 4 mg/ml) in 96-well tissue culture plate. 24 hr later, the cells were washed extensively with Assay Buffer (DMEM, Cellgro#10-013-CM, 4.5 g/L glucose, supplemented with 0.05 mg/mL Human Insulin and 0.1% Fatty Acid Free BSA). […] The cells were then returned to the tissue culture incubator (37° C. and 5% CO2) for 4 hrs. At the end of incubation, the cells were washed three times with 200 μL/well Hanks buffer (HBSS) and then stored at −20° C. until extraction.
For fatty acid extraction, after thawing out the plates, 40 μL of 1N KOH (containing 5 μM of internal standard 7,7,8,8-D4 palmitate) was added to each well and cell plates were incubated at 37° C. for 30 minutes. […] Acetonitrile (100 μL) was then added to extract fatty acids, followed by centrifugation at 3000 rpm for 10 minutes. 75 μL of extract was then transferred to a new glass vial in a 96-well cluster plate. 5 μL was injected for LC/MS analysis for detection of ^13C-palmitic acid and ^13C-palmitoleic acid. Formation of product ^13C-palmitoleic acid was determined as an index of SCD1 activity.
LC/MS analysis was performed as following. An Agilent 1100 Liquid Chromatographic System (Palo Alto, Calif.) consisting of a binary pump, a degasser and an autosampler was used. Separation of free fatty acids was performed on a Zorbax SB-C8 column (2.1×50 mm, particle size=3.5 μm). An isocratic elution was carried out with 10 mM triethylamine acetate in water: acetonitrile (3:7) at a flow rate of 0.3 mL/min. The column temperature was set at 30° C. and the sample injection volume was 5 μL. The LC run cycle was 4 min. A Micromass triple-quadrupole Quattro Micro mass […] (Waters, Beverly, Mass.) was interfaced with the LC system through a Z-spray electrospray ion source and was operated in the negative ion mode. Nitrogen was used as nebulizing gas, desolvation gas and cone curtain gas and argon was chosen as collision gas. The triple quadrupole MS source parameters were set as follows: capillary voltage, 3200V; cone voltage, 25V; exctractor 2V; source temperature, 120° C.; desolvation temperature, 300° C.; cone gas flow, 50 L/h; and desolvation gas flow, 700 L/h. […] MassLynx software version 4.0 was used for system control and data processing. The signal of U-^13C-palmitoleic acid was normalized to an internal standard.

SCD1 [2] = biological target: SCD1 (Rattus norvegicus (Rat), UniProt P07308); assay: SCD1 enzymatic assay in rat liver microsomes (RLM); format: biochemical; settings: rat liver microsomes; for inhibition at 1 µM / % Inh.@ 1 μM: 1 μM test compound; for inhibition at 1 µM: read-out: % Inh.@ 1 μM
Chain of SCD1 (Rattus norvegicus (Rat), UniProt P07308) (P07308 whole entry): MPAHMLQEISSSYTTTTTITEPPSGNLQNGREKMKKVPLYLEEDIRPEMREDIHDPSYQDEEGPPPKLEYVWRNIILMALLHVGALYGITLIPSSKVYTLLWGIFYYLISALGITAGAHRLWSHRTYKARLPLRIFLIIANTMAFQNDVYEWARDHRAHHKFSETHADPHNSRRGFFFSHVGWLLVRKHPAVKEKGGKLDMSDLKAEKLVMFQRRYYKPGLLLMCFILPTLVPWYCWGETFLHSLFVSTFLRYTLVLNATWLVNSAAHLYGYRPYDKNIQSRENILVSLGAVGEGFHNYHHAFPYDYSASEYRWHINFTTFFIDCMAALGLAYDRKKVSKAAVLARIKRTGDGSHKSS
Method: Step 1: Preparation of Rat Liver Microsome (RLM):
Sprague Dawley rats from Charles River (200-225 g) underwent 2-cycle of fast-re-feeding (24-hour fast followed by 24-hour feeding with fat-free high carbohydrate diet, Reseach Diet, D00042802). The livers were removed and homogenized 1:4 (w/v) with pre-chilled, homogenizing buffer (10 mM Tris-HCl, 0.25 M sucrose, 1 mM EDTA, pH 7.4, supplemented with protease inhibitor cocktail). The homogenate was spun at 12,000×g for 15 min at 4° C. The supernatant was then re-centrifuged at 100,000×g for 60 min at 4° C. The pellet was re-suspended in 2 ml pre-chilled […] potassium phosphate buffer, pH 7.2, 10 mM EDTA at a concentration of 20 mg/ml. The resulting rat liver microsome (RLM) preparation was stored at −80° C.
Step 2: SCD1 Enzymatic Assay in RLM:
The SCD1 enzymatic assay was done in a volume of 50 μL using 10 μg of RLM (prepared as described above) in a 96-well polypropylene plate (enzyme reaction buffer contains 0.1 M K-Phosphate Buffer, 10 mM ATP, 6 mM MgCl2. 1 mM CoA, 1 mM β-NADH, 1.6 mM L-glutathione, 20 μM Stearoyl-CoA). Stearoyl-[9,10-^3H]-CoA (ARC-0390, 1 mCi/mL, 60 Ci/mmol,) was added at a final concentration of 2 μCi/mL. Test compound was then added to the reaction mixture at the selected concentration. After incubation at room temperature for 2 hours, 5 μL 1 N HCl was added to stop the reaction, followed by addition of 25 μL of 10% charcoal. The reaction mixture was then transferred to 96-well Multiscreen plate (Millipore, Cat#MSFCN6B50). […] The measured cpm values were fitted with Sigmoidal dose-response curve fit with Graphpad Prism.

| IC50 (SCD1 [1]) | inhibition at 1 µM (SCD1 [2]) | IC50 (SCD1 [2]) | % Inh.@ 1 μM (SCD1 [2]) | Structure (SMILES) |
| --- | --- | --- | --- | --- |
| 99 nM | 85% | 165 nM | – | Cn1cc(-c2ccc(N3CCC(N4CCc5cc(F)ccc54)CC3)nn2)cn1 [Compound #46, 5-fluoro-1-(1-(6-(1-methyl-1H-pyrazol-4-yl)pyridazin-3-yl)piperidin-4-yl)indoline] |
| 8 nM | 96% | 22 nM | – | OCc1ccc(-c2ccc(N3CCC(N4CCc5ccc(F)cc54)CC3)nn2)cc1 [Compound #51] |
| 6 nM | 92% | 121 nM | – | Cc1ccc(-c2ccc(N3CCC(N4CCc5ccc(F)cc54)CC3)nn2)s1 [Compound #52, 6-fluoro-1-(1-(6-(5-methylthiophen-2-yl)pyridazin-3-yl)piperidin-4-yl)indoline] |
| 241 nM | 72% | 286 nM | – | Cc1ccc2c(c1)N(C1CCN(c3ccc(-c4cnn(C)c4)nn3)CC1)CC2 [Compound #57, 6-methyl-1-(1-(6-(1-methyl-1H-pyrazol-4-yl)pyridazin-3-yl)piperidin-4-yl)indoline] |
| 28 nM | 99% | 35 nM | – | Cn1cc(-c2ccc(N3CCC(N4CCc5ccc(Cl)cc54)CC3)nn2)cn1 [Compound #59, 6-chloro-1-(1-(6-(1-methyl-1H-pyrazol-4-yl)pyridazin-3-yl)piperidin-4-yl)indoline] |
| 407 nM | 79% | 317 nM | – | COc1ccc2c(c1)N(C1CCN(c3ccc(-c4cnn(C)c4)nn3)CC1)CC2 [Compound #62, 6-methoxy-1-(1-(6-(1-methyl-1H-pyrazol-4-yl)pyridazin-3-yl)piperidin-4-yl)indoline] |
| 12 nM | 102% | 15 nM | – | CNC(=O)Cn1cc(-c2ccc(N3CCC(N4CCc5ccc(F)cc54)CC3)nn2)cn1 [Compound #64, 2-(4-(6-(4-(6-fluoroindolin-1-yl)piperidin-1-yl)pyridazin-3-yl)-1H-pyrazol-1-yl)-N-methylacetamide] |
| 218 nM | 83% | 181 nM | – | Cn1cc(-c2ccc(N3CCC(N4CCc5cc(Cl)ccc54)CC3)nn2)cn1 [Compound #65, 5-chloro-1-(1-(6-(1-methyl-1H-pyrazol-4-yl)pyridazin-3-yl)piperidin-4-yl)indoline] |
| 9 nM | 99% | 8 nM | – | CCOCc1cnn(-c2ccc(N3CCC(N4CCc5ccc(F)cc54)CC3)nn2)c1 [Compound #72, 1-(1-(6-(4-(ethoxymethyl)-1H-pyrazol-1-yl)pyridazin-3-yl)piperidin-4-yl)-6-fluoroindoline] |
| 14 nM | 97% | 16 nM | – | Fc1ccc2c(c1)N(C1CCN(c3ccc(-c4ccc(C(F)(F)F)nc4)nn3)CC1)CC2 [Compound #76, 6-fluoro-1-(1-(6-(6-(trifluoromethyl)pyridin-3-yl)pyridazin-3-yl)piperidin-4-yl)indoline] |
| 41 nM | 99% | 12 nM | – | CCOCCn1cc(-c2ccc(N3CCC(N4CCc5ccc(F)cc54)CC3)nn2)cn1 [Compound #78, 1-(1-(6-(1-(2-ethoxyethyl)-1H-pyrazol-4-yl)pyridazin-3-yl)piperidin-4-yl)-6-fluoroindoline] |
| 72 nM | 97% | 22 nM | – | CCCn1cc(-c2ccc(N3CCC(N4CCc5ccc(F)cc54)CC3)nn2)cn1 [Compound #79, 6-fluoro-1-(1-(6-(1-propyl-1H-pyrazol-4-yl)pyridazin-3-yl)piperidin-4-yl)indoline] |

Second part, the compound before the results:

| Structure (SMILES) | IC50 (SCD1 [1]) | inhibition at 1 µM (SCD1 [2]) | IC50 (SCD1 [2]) | % Inh.@ 1 μM (SCD1 [2]) |
| --- | --- | --- | --- | --- |
| Fc1ccc2c(c1)N(C1CCN(c3ccc(-c4ccc(C(F)(F)F)cc4)nn3)CC1)CC2 [Compound #54, 6-fluoro-1-(1-(6-(4-(trifluoromethyl)phenyl)pyridazin-3-yl)piperidin-4-yl)indoline] | 54 nM | 85% | 90 nM | – |
| O=C(O)c1ccc(-c2ccc(N3CCC(N4CCc5ccc(F)cc54)CC3)nn2)cc1 [Compound #58, 4-(6-(4-(6-fluoroindolin-1-yl)piperidin-1-yl)pyridazin-3-yl)benzoic acid] | 390 nM | 78% | 349 nM | – |
| CCn1cc(-c2ccc(N3CCC(c4noc5ccc(F)cc45)CC3)nn2)cn1 [compound 13, 3-(1-(6-(1-ethyl-1H-pyrazol-4-yl)pyridazin-3-yl)piperidin-4-yl)-5-fiuorobenzo[d]isoxazole] | 985 nM | 98% | 70 nM | – |
| Cc1nnc(-c2ccc(N3CCC(c4noc5ccc(F)cc45)CC3)nn2)o1 [compound 18, 5-fluoro-3-(1-(6-(5-methyl-1,3,4-oxadiazol-2-yl)pyridazin-3-yl)piperidin-4-yl)benzo[d]isoxazole] | 248 nM | – | 315 nM | – |
| OCc1nnc(-c2ccc(N3CCC(c4noc5ccc(F)cc45)CC3)nn2)o1 [compound 20, (5-(6-(4-(5-fluorobenzo[d]isoxazol-3-yl)piperidin-1-yl)pyridazin-3-yl)-1,3,4-oxadiazol-2-yl)methanol] | 11 nM | 96% | 16 nM and 14 nM | 96, 96% |
| Cc1csc(-c2ccc(N3CCC(c4noc5ccc(F)cc45)CC3)nn2)n1 [compound 23, 5-fluoro-3-(1-(6-(4-methylthiazol-2-yl)pyridazin-3-yl)piperidin-4-yl)benzo[d]isoxazoie] | 3 nM | 100% | 21 nM | – |
| Cc1ccc(-c2ccc(N3CCC(c4noc5ccc(F)cc45)CC3)nn2)cn1 [compound 24, 5-fluoro-3-(1-(6-(6-methylpyridin-3-yl)pyridazin-3-yl)piperidin-4-yl)benzo[d]isoxazote] | 9 nM and 6 nM | 98% | 11 nM and 4 nM | 94% |
| Cc1cc(-c2ccc(N3CCC(c4noc5ccc(F)cc45)CC3)nn2)ccn1 [compound 25, 5-fluoro-3-(1-(6-(2-methylpyridin-4-yl)pyridazin-3-yl)piperidin-4-yl)benzo[d]isoxazole] | 17 nM | 62% | 171 nM | – |
| Fc1ccc2onc(C3CCN(c4ccc(-c5cn[nH]c5)nn4)CC3)c2c1 [compound 26, 3-(1-(6-(1H-pyrazol-4-yl)pyridazin-3-yl)piperidin-4-yl)-5-fluorobenzo[d]isoxazole] | 112 nM | 86% | 111 nM | – |
| Cc1csc(-c2ccc(N3CCC(c4noc5ccc(F)cc45)CC3)nn2)c1 [compound 27, 5-fluoro-3-(1-(6-(4-methylthiophen-2-yl)pyridazin-3-yl)piperidin-4-yl)benzo[d]isoxazole] | 4 nM and 3 nM | 75% | 114 nM and 122 nM | 55% |
| Cc1cnc(-c2ccc(N3CCC(c4noc5ccc(F)cc45)CC3)nn2)s1 [compound 28, 5-fluoro-3-(1-(6-(5-methylthiazol-2-yl)pyridazin-3-yl)piperidin-4-yl)benzo[d]isoxazole] | 9 nM and 16 nM | 94% | 9 nM | – |
